Results as given in PMC4970318 (Journal of molecular biology, 2014).
Peptide text beside a SMILES is read from it. * marks the point of attachment. FITC = O=C1OC2(c3ccc(O)cc3Oc3cc(O)ccc32)c2ccc(NC(=S)*)cc21; Ahx = NCCCCCC(=O)O

Tests used:
[1] = target: M3P6m (I71V mutant of M3P6) (Homo sapiens, UniProt Q5TCQ9, I1085V); type: binding
M3P6 (MAGI-3 PDZ6) = M3P6 (MAGI-3 PDZ6) (Homo sapiens, UniProt Q5TCQ9); type: binding; conditions: for selectivity for M3P6 over N2P2: ratio of Ki values of Table 1; for shift in selectivity towards M3P6: relative to the native peptide, M3P6 vs N2P2
Sequence of M3P6 (MAGI-3 PDZ6) (Q5TCQ9 1040-1149 isoform Q5TCQ9-2): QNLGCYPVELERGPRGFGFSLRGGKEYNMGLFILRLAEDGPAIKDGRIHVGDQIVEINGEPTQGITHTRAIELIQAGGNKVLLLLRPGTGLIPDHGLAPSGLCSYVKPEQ

N2P2 (NHERF-2 PDZ2) = N2P2 (NHERF-2 PDZ2) (Homo sapiens, UniProt Q15599); assay: biochemical
Sequence of N2P2 (NHERF-2 PDZ2) (Q15599 143-280): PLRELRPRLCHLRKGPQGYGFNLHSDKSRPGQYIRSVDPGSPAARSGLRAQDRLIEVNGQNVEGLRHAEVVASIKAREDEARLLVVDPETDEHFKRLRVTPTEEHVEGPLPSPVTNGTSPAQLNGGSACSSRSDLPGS

Sequence of M3P6m (I71V mutant of M3P6) (Q5TCQ9 1040-1149 isoform Q5TCQ9-2 I1110V): as the sequence (Q5TCQ9 1040-1149 isoform Q5TCQ9-2) above, with I71V counted along it

SMILES | Ki [1] [µM] | Ki (M3P6 (MAGI-3 PDZ6)) [µM] | further results
C[C@@H](O)[C@H](N)C(=O)NCC(=O)N[C@@H](CCC(=O)O)C(=O)N[C@H](C(=O)N[C@H](C(=O)N[C@@H](Cc1ccccc1)C(=O)O)[C@@H](C)O)[C@@H](C)O [FD1, TGETTF] (H-TGETTF-OH) | 151 ± 15.9 | 600 ± 300 | 
CC(C)[C@H](NC(=O)[C@@H](NC(=O)[C@@H](NC(=O)[C@H](C)NC(=O)[C@H](Cc1ccccc1)NC(=O)[C@@H](N)CC(=O)O)[C@@H](C)O)[C@@H](C)O)C(=O)O [CAT, DFATTV] (H-DFATTV-OH) | 351 ± 17.9 |  | 
CC(C)[C@H](NC(=O)[C@H](CCCNC(=N)N)NC(=O)[C@@H](NC(=O)[C@H](C)NC(=O)[C@H](Cc1ccccc1)NC(=O)[C@@H](N)CC(=O)O)[C@@H](C)O)C(=O)O [CAR, DFATRV] (H-DFATRV-OH) | 285 ± 24.5 |  | 
CC(C)[C@H](NC(=O)[C@@H](NC(=O)[C@@H](NC(=O)[C@H](CO)NC(=O)[C@H](Cc1ccccc1)NC(=O)[C@@H](N)CC(=O)O)[C@@H](C)O)[C@@H](C)O)C(=O)O [CST, DFSTTV] (H-DFSTTV-OH) | 242 ± 17.6 |  | 
C[C@@H](O)[C@H](NC(=O)[C@H](CO)NC(=O)CNC(=O)[C@H](CO)NC(=O)CNC(=O)CNC(=O)CCCCCNC(=S)Nc1ccc2c(c1)C(=O)OC21c2ccc(O)cc2Oc2cc(O)ccc21)C(=O)N[C@@H](CCCNC(=N)N)C(=O)N[C@@H](Cc1ccccc1)C(=O)O [FD2 8-mer, FITC-Ahx-GGSGSTRF] ({FITC-Ahx}-GGSGSTRF-OH) |  |  | Kd (N2P2 (NHERF-2 PDZ2)): 3.6 ± 0.5 µM
C[C@@H](O)[C@H](NC(=O)[C@H](CO)NC(=O)CNC(=O)[C@@H](N)CO)C(=O)N[C@@H](Cc1c[nH]cn1)C(=O)N[C@@H](Cc1ccccc1)C(=O)O [FD3, SGSTHF] (H-SGSTHF-OH) |  | > 1000 | 
CSCC[C@H](NC(=O)[C@@H](N)CC(C)C)C(=O)N[C@@H](CC(=O)O)C(=O)N[C@@H](CO)C(=O)N[C@H](C(=O)N[C@@H](CC(C)C)C(=O)O)[C@@H](C)O [LPA2 6-mer, LMDSTL, reference compound] (H-LMDSTL-OH) | 67.7 ± 5.4 | 47.4 ± 2.6 | 
CC(C)[C@H](NC(=O)[C@H](CCCNC(=N)N)NC(=O)[C@@H](NC(=O)[C@H](CO)NC(=O)[C@H](Cc1ccccc1)NC(=O)[C@@H](N)CC(=O)O)[C@@H](C)O)C(=O)O [CSR, DFSTRV] (H-DFSTRV-OH) | 510 ± 51.4 |  | 

Continued, in another order:

Ki [1] [µM] | Ki (M3P6 (MAGI-3 PDZ6)) [µM] | SMILES | further results
 | 1.8 ± 0.5 | CC(C)[C@H](NC(=O)[C@H](Cc1c[nH]c2ccccc12)NC(=O)[C@@H](NC(=O)[C@H](CCC(=O)O)NC(=O)[C@H](Cc1ccccc1)NC(=O)[C@@H](N)CC(=O)O)[C@@H](C)O)C(=O)O [RD1, DFETWV] (H-DFETWV-OH) | selectivity for M3P6 over N2P2 (M3P6 (MAGI-3 PDZ6)): 3 fold; shift in selectivity towards M3P6 (M3P6 (MAGI-3 PDZ6)): 5 fold
 | 2.7 ± 0.4 | CC(C)[C@H](NC(=O)[C@H](Cc1c[nH]c2ccccc12)NC(=O)[C@@H](NC(=O)[C@H](CCC(=O)O)NC(=O)[C@H](Cc1ccccc1)NC(=O)CN)[C@@H](C)O)C(=O)O [RD2, GFETWV] (H-GFETWV-OH) | selectivity for M3P6 over N2P2 (M3P6 (MAGI-3 PDZ6)): 4.6 fold; shift in selectivity towards M3P6 (M3P6 (MAGI-3 PDZ6)): 8 fold
 | 6.8 ± 1.5 | CC(C)[C@H](NC(=O)[C@H](Cc1c[nH]c2ccccc12)NC(=O)[C@@H](NC(=O)[C@H](CC(=O)O)NC(=O)[C@H](Cc1ccccc1)NC(=O)CN)[C@@H](C)O)C(=O)O [RD3, GFDTWV] (H-GFDTWV-OH) | 
